In patent EP0855398B1, “SESQUITERPENE DERIVATIVES HAVING ANTIVIRAL ACTIVITY” (SHIONOGI & CO., LTD., priority 1995, dated 1997):
In brackets after ≈: the same amount, converted by molar mass.

Tests used:
influenza A and B = settings: administered orally or intraperitoneally; cited from earlier work
MDBK cells = settings: Cell: MDBK, no virus; concentration at which 50% of the cells are killed; 4320 min
[1] = tested on: Influenza virus A/WSN/33 (H1N1); test: microbe, parasite or virus in culture; assay type: cell-based; settings: viral strain: Influenza virus A/WSN/33 (H1N1); Cell: MDBK; […]; 3 days
A/Osaka/5/70 (H3N2) = test: Anti-viral activities against subtypes of influenza A and B (plaque number); assay type: cell-based; settings: Influenza A virus, 72 h; (3): A/Osaka/5/70 (H3N2); Cell: MDCK; number of plaques decreases by 50%; 3 days; read-out: IC50
A/Kumamoto/5/67 (H2N2) = test: microbe, parasite or virus in culture; assay type: cell-based; settings: Influenza A virus, H2N2, MDCK, 72 h
B/91N759 = test: Anti-viral activities against subtypes of influenza A and B (plaque number); assay type: cell-based; settings: Influenza B virus, 72 h; (5): B/91N759; Cell: MDCK; number of plaques decreases by 50%; 3 days; read-out: IC50
[2] = Cytotoxicity for MDCK cells; assay type: cell-based; settings: dog, Cell: MDCK, no virus
Method: As in the measurement of anti-viral activity, samples were added to the cells, and incubated with 50 µl of culture medium instead of the viral dilution. The results are expressed as CC50 which is defined as the concentration of the compound at which 50% of the cells are killed due to the toxicity of the compound.
MDCK cells (derived from dog kidney) were cultured on 12-well plates using E-MEM supplemented by 10% fetal bovine serum. To each well was added 250 µl each of a viral dilution prepared by 10-fold serial dilution with E-MEM, followed by incubation for one hour under 5% CO2 at 37 °C. After removal of the viral solution, one ml of E-MEM containing 0.8% agarose, 0.5% bovine serum albumin and 2 µg/ml trypsin, and an appropriately diluted test compound was added. The plate was inverted, and incubated for 3 days under 5% CO2 at 37 °C. The number of plaques formed was counted, and the IC50 value, which is the concentration of the compound at which the number of plaques decreases by 50% compared to that of control which lacks the test compound, was determined. As in the above section 2), CC50 values for MDCK cells were determined.

A/WSN/33 (H1N1) = test: Anti-viral activities against subtypes of influenza A and B (plaque number); assay type: cell-based; settings: Influenza A virus, 72 h; (1): A/WSN/33 (H1N1); Cell: MDCK; number of plaques decreases by 50%; 3 days; read-out: IC50
A/91/N796 (H3N2) = test: as above; assay type: cell-based; settings: Influenza A virus, 72 h; (4): A/91/N796 (H3N2); Cell: MDCK; number of plaques decreases by 50%; 3 days; read-out: IC50

SMILES	activity against influenza A and B (influenza A and B)	CC50 (MDBK cells) [µg/mL]	IC50 [1] [µg/mL]	IC50 (A/Osaka/5/70 (H3N2)) [µg/mL]	IC50 (A/Kumamoto/5/67 (H2N2)) [µg/mL]	IC50 (B/91N759) [µg/mL]	CC50 [2] [µg/mL]	IC50 (A/WSN/33 (H1N1)) [ng/mL]	IC50 (A/91/N796 (H3N2)) [µg/mL]
CC(=O)N[C@H]1[C@H]([C@H](O)[C@H](O)CO)OC(C(=O)O)=C[C@@H]1NC(=N)N [4-guanidino-Neu5Ac2en]	has not a satisfactory activity								
CCOC(=O)C=CC(=O)Nc1ccc(S(=O)(=O)O[C@H]2C[C@@]34Oc5c(c(O)cc6c5CNC6=O)C[C@]3(C)[C@@H](C)CC[C@H]4C(C)(C)[C@H]2O)cc1 [Compound (50f), (6aR, 7S, 9aS, 11R, 12S, 13aS)-12-[4-(3-ethoxycarbonyl-1-oxo-2-propenyl)amino] phenylsulfonyloxy-2,3,6,6a, 7,8,9,9a, 10, 11, 12, 13-dodecahydro-5, 11-dihydroxy-6a, 7, 10, 10-tetramethyl-3-oxo-1H-benzo[8,8a][1]benzopyrano[2,3-e]isoindole]		5 (≈ 7.32 µM)	0.01 (≈ 0.0146 µM)						
CC(=O)O[C@@H]1C(=O)C[C@@]23Oc4c(c(O)cc5c4CNC5=O)C[C@]2(C)[C@@H](C)CC[C@H]3C1(C)C [Compound (53a), (6aR, 7S, 9aS, 11S, 13aS)-11-acetoxy-2,3,6,6a, 7,8,9,9a, 10 11, 12, 13-dodecahydro-5-hydroxy-6a, 7, 10, 10-tetramethyl-3,12-dioxo-1H-benzo[8,8a][1]benzopyrano[2,3-e]isoindole]		>10	0.04 to 0.08						
C[C@H]1CC[C@H]2C(C)(C)C(=O)CC[C@]23Oc2c(c(O)cc4c2C(=O)NC4=O)C[C@]13C [SQ-02-S5-OX1(11)]				0.1 to 1 (≈ 0.252 to 2.52 µM)	0.01 to 0.1 (≈ 0.0252 to 0.252 µM)	0.1 (≈ 0.252 µM)	25 to 30 (≈ 62.9 to 75.5 µM)	1 to 10 (≈ 0.00252 to 0.0252 µM)	1 (≈ 2.52 µM)
C[C@H]1CC[C@H]2C(C)(C)C(=O)CC[C@]23Oc2c(c(O)cc4c2CNC4=O)C[C@]13C [SQ-02-S5-OX2(12)]				1 to 10 (≈ 2.61 to 26.1 µM)	0.01 to 0.1 (≈ 0.0261 to 0.261 µM)	0.1 to 1 (≈ 0.261 to 2.61 µM)	25 to 50 (≈ 65.2 to 130 µM)	1 to 10 (≈ 0.00261 to 0.0261 µM)	1 (≈ 2.61 µM)
